From patent US9353157B2 (priority 2007, dated 2016)
Where “and” joins values, the source holds several entries; their conditions need not be identical. Identical values can stand only once. Ends that are not written are not given here.

How the values were obtained:
influenza A virus = test: Plaque reduction / virus infectivity assays, influenza A virus (strain not specified); assay type: cell-based; conditions: for IC50: normal-sized plaques, read-out: potency in virus infectivity assays, normal-sized plaques
Experimental: (§1) Using an immunoplaque assay with AVICEL® microcrystalline cellulose as the overlay (Matrosovich et al., 2006), plaques are detected by fixing the monolayers and staining with a specific antibody to the influenza virus nucleoprotein. In the peptide inhibition assay, peptide is preincubated with about 100 plaque forming units (pfu) of the virus for approximately 1 hour, then used to infect the monolayers. Two conditions were used for the incubation: (1) standard condition in which the peptide is included in the overlay at the same concentration that was used in the preincubation step, or (2) a condition in which the peptide is not included in the overlay.
(§2) F3 was evaluated for inhibition of multiple subtypes of influenza A viruses utilizing Madin-Darby Canine Kidney (“MDCK”) cell plaque assays performed using the A/WSN/33 (H1N1) and A/Udorn/72 (H3N2) subtypes of influenza A virus. Dilutions of 50 μM to 2.5 μM of F3 and the randomly scrambled control peptide (SEQ ID NO: 14) were used to evaluate the effects of these peptides on viral infectivity. Six dilutions of F3 and of the control peptide were tested against the H1N1 viral subtype; and another six dilutions of each peptide were tested against the H3N2 viral subtype.

influenza A/Cal/07/04 = tested on: influenza A/Cal/07/04; set-up: species or system ferret; conditions: in vivo; for ferrets with significant respiratory distress, high fever, sneezing / signs of influenza: 0.3 mg/kg
[1] = tested on: H3N2 influenza A/Cal/07/04; set-up: species or system ferret; conditions: in vivo; for ferrets with significant/severe respiratory distress (high fever, sneezing): 0.3 mg/kg
[2] = tested on: influenza A/PR/8/34 (H1N1); test: Inhibition of influenza virus-induced hemagglutination, A/PR/8/34; assay type: cell-based; conditions: for concentration inhibiting influenza virus-induced hemagglutination: optimal numbers of red blood cells and concentrations of virus
Experimental: Studies have been conducted with various influenza strains to better understand the mechanism of action of the peptides of the invention, e.g., to determine which step in the viral replication cycle is inhibited by F3, F1, and related influenza virus inhibitory peptides. At optimal numbers of red blood cells and concentrations of influenza A/PR/8/34 (H1N1), both F3 and F1 inhibited influenza virus-induced hemagglutination at about 10 μM concentrations.

[3] = tested on: recombinant H5N1 influenza virus
[4] = tested on: influenza B (B/Shanghai/361/2002)
[5] = tested on: influenza B (B/Shanghai/10/2003)
H1N1 influenza A virus = test: MDCK cell immunoplaque / plaque reduction assay, H1N1; assay type: cell-based; conditions: H1 influenza A virus subtype
Experimental: as §1, §2
(§3) At low nM concentrations (<10 nM) for condition (1), or low μM ([…]) for condition (2), the presence of “mini-plaques” were apparent.

H3N2 influenza A virus = test: MDCK cell immunoplaque / plaque reduction assay, H3N2; assay type: cell-based; conditions: H3 influenza A virus subtype
Experimental: as §1, §2, §3

In the case of “SWLVNKIYLTDDEVEL (Scrambled version of residues 84-99 of influenza A/H3 HA2) [scrambled control peptide, reference compound]”, the anti-viral properties (influenza A virus) is reported as “no discernable anti-viral properties”, the “inhibition of influenza A virus plaque formation” value (influenza A virus; under any condition (peptide in overlay or not)) is reported as “did not inhibit” and the “lung presentation (gross pathology)” value (influenza A/Cal/07/04) is reported as “evidence of inflammation”. For the same substance, the “tissue pathology (histopathology)” value (influenza A/Cal/07/04) was “infiltrations, bronchial inflammation, with bronchial exudates”, the “ferrets with significant respiratory distress, high fever, sneezing / signs of influenza” value (influenza A/Cal/07/04) was “all 12” and the “ferrets displaying significant nasal discharge” value [1] was 100%. For the same substance, the “ferrets presenting with lethargy” value [1] was 50%, the “ferrets with significant/severe respiratory distress (high fever, sneezing)” value [1] was “all” and the inhibition of hemagglutination ([2]; at any concentration) was “did not inhibit”.
VEDTKIDLWSYNAELL-NH2 [F3] was tested, and the anti-viral properties (influenza A virus) was “potent anti-viral properties”, the “inhibition in plaque reduction assays” value (influenza A virus) was “picomolar inhibition” and the “concentration at which mini-plaques were apparent” value (influenza A virus; condition (1): peptide included in the overlay) was < 10 nM. The IC50 (influenza A virus) was ~0.2 nM, the “animals that developed mild signs of influenza” value (influenza A/Cal/07/04) was “two” and the “lung presentation (gross pathology)” value (influenza A/Cal/07/04) was “normal lung presentations”. For the same substance, the “pathological responses (respiratory distress, nasal discharge, activity), FIG. 6” value (influenza A/Cal/07/04) was “significantly reduced pathological responses”, the “reduction of peak titers of influenza virus in nasal washes” value (influenza A/Cal/07/04) was “greater than 2.0 log10” and the “reduction of peak titers of influenza virus in the lungs” value (influenza A/Cal/07/04) was “greater than 6.0 log10”. For the same substance, the “spread of the virus to the lower respiratory tract and to other organs” value (influenza A/Cal/07/04) was “effectively blocked”, the “tissue pathology (histopathology)” value (influenza A/Cal/07/04) was “markedly reduced pathology” and the “ferrets with significant respiratory distress, high fever, sneezing / signs of influenza” value (influenza A/Cal/07/04) was “none”. For the same substance, the “clinical signs of influenza” value [1] was “no clinical signs of influenza”, the “ferrets with very mild respiratory signs with slight fever” value [1] was 2/5 and 1/6 and the “ferrets with significant/severe respiratory distress (high fever, sneezing)” value [1] was “none”. For the same substance, the IC50 [3] was < 5 nM, the IC50 [4] was < 5 nM and the IC50 [5] was < 5 nM. For the same substance, the “concentration inhibiting influenza virus-induced hemagglutination” value [2] was “about 10 μM”.
For VDDGFLDIWTYNAELLVLL [F1], the IC50 (influenza A virus) was ~0.2 nM, the “antiviral activity in plaque assays” value (H1N1 influenza A virus) was “potent (picomolar)” and the “antiviral activity in plaque assays” value (H3N2 influenza A virus) was “potent (picomolar)”. The “concentration inhibiting influenza virus-induced hemagglutination” value [2] was “about 10 μM”.
